Experimental findings from patent US20050241940A1, “Fast perfusion system and patch clamp technique utilizing an interface chamber system having high throughput and low volume requirements” (Wyeth, priority 2004, published 2005) are described below.

In this assay the test system is outward potassium currents in DRG neurons. The assay can be described thus: Whole cell patch clamp recording of outward potassium currents in DRG neurons using the interface chamber. Type of assay: cell-based. How it is done:
The current across a patch clamp measuring electrode and cell versus time is shown. Whole cell recording measurements were obtained via conventional methods. The interface chamber was moved to surround the cell as in steps 101-103 above. A measurement of current was recorded while the cell was in a well containing a normal saline (control) solution. The cell was then moved from normal saline to a well containing increasing concentrations (from 0 to 10 mM in increasing increments) of the K^+ channel blocker 4-AP. For each of the measurements, cells were held at −50 mV, stepped with a prepulse to −100 mV for 400 ms and then stepped for the test to +40 mV. After the test pulse, cells were repolarized to −60 mV. Sweeps were obtained every 10 sec, and 5 sweeps were obtained per well. The interface was moved from one well to the next in a short time, such as 2 seconds.
Outward currents due to K^+ flow from the cell is shown. […] The lower current is consistent with the expected blocking effected of the 4-AP. Both the peak current (the spike at the left of graph of each measurement) and the end current (final value of current for each measurement) decreased as the concentration of 4-AP increased.
FIG. 8 illustrates a graph showing the peak current of a fractional block versus the concentration of a test substance according to one example of the invention. […] The dose response curve shown illustrates the ability of this system to measure multiple concentrations of test substance accurately.
In general terms: Patch clamp records ionic current or voltage across a cell membrane.

Setting [1] is: highest concentration tested (10 mM).

For `Nc1ccncc1` [4-AP], the “end current (final value of current for each measurement)” value (as the concentration of 4-AP increased (0 to 10 mM)) was “decreased”. In addition, the peak current result (as the concentration of 4-AP increased (0 to 10 mM), FIG. 7, shown as fractional block in FIG. 8) is given as “the peak current decreased as the concentration of 4-AP increased”. Under setting [1], the inactivating current remaining result was “no inactivating current remains” and the “non-inactivating (persistent) current remaining” value is recorded as “significant non-inactivating (persistent) current persists”. Also, the “current across the cell membrane (outward K+ current)” value (whole cell, increasing 4-AP concentrations from 0 to 10 mM, test pulse to +40 mV) is reported as “decreased the current across the cell membrane”.
